Assay results from patent US20070209950A1, “METHODS AND DEVICES FOR THE DETECTION AND MEASUREMENT OF FREE METALS IN FLUIDS AND METHODS FOR DIAGNOSING METAL-RELATED DISEASES AND FOR DETERMINING PHARMACOLOGIC DOSING REGIMENS” (priority 2006, published 2007).

Assays:
[1] = biological target: T1, ceruloplasmin (Homo sapiens, UniProt P00450); conditions: order of magnitude; read-out: Kd for copper bound to ceruloplasmin; cited from earlier work
T1 sequence (P00450 20-1065): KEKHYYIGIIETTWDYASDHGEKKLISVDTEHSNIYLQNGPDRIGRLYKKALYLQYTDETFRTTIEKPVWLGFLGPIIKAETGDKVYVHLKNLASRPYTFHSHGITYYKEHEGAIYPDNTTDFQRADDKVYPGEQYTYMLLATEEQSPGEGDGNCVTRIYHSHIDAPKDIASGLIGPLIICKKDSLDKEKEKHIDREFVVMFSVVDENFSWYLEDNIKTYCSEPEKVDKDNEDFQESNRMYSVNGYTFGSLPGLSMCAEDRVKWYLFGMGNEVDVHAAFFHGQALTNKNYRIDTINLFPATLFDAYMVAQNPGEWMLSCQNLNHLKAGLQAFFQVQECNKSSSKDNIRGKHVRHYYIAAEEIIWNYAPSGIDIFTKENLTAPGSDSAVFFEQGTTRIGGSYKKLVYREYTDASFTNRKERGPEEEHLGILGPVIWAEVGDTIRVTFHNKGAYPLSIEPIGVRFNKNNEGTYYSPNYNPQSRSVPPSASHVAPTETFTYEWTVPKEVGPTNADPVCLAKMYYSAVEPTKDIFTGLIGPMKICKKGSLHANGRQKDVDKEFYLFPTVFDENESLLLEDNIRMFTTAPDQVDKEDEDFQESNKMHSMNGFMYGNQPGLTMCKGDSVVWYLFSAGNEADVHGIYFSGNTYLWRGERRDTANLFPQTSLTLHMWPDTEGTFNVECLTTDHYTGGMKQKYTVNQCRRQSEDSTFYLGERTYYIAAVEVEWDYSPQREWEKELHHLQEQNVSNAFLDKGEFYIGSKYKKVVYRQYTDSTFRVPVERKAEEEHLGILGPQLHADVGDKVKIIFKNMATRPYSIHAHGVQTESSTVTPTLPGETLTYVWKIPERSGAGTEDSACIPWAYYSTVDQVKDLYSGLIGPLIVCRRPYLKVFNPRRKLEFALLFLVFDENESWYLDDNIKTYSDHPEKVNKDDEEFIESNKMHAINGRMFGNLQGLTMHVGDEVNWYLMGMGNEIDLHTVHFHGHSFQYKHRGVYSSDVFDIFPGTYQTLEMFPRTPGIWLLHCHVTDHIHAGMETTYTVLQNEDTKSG

[2] = biological target: apo-glucose dehydrogenase (Acinetobacter calcoaceticus, UniProt P13650); test: activation of apo-glucose dehydrogenase by co-factor PQQ, electrochemical current; type: biochemical
apo-glucose dehydrogenase, sequence (P13650 25-478): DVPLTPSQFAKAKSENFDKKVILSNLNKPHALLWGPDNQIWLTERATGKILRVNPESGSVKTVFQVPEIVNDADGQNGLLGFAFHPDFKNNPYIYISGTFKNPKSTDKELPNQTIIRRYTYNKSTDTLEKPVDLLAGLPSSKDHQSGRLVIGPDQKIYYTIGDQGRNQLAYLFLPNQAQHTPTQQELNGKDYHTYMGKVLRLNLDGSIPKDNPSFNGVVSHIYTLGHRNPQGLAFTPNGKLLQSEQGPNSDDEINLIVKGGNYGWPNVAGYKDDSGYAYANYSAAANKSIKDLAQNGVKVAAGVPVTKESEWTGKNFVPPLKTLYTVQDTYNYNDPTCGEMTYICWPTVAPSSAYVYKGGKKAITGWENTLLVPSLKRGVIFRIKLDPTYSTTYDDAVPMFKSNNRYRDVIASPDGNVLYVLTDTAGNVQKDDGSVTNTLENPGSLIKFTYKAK
Text: FIG. 8 is a schematic showing a specific example of glucose being oxidized to gluconone by the holo-enzyme glucose dehydrogenase. In this case the co-enzyme is PQQ and a common mediator used to transducer electrical current through a working electrode is ferrocene. This is another type of configuration in glucometers today.
FIG. 9 is a schematic showing the loss of glucose dehydrogenase activity when the specific co-factor PQQ is removed. As an apo-enzyme, […] is not capable of oxidizing glucose. As a result, transduction of current is blocked.
PQQ was added to apo-enzyme in doses ranging from 100 pM to 100 nM. […] In this case, distinctions were observed by 60 sec.

With `[Cu]` [copper] as the compound, how does the Kd [1] read?
The Kd was roughly 0.01 nM.

For `O=C(O)c1cc(C(=O)O)c2c(n1)C(=O)C(=O)c1cc(C(=O)O)[nH]c1-2` [PQQ], which “outward current on addition of co-factor” value ([2]; FIG. 10, with PQQ) is on record?
Its value is “outward current (more negative) results”.

And the “outward current on addition of co-factor” value ([2]; FIG. 17, PQQ added to apo-enzyme in doses from 100 pM to 100 nM)?
Its value is “increase in the measurement of outward current”.
